Test results taken from US9573972B2, “Nurotoxic sterol glycosides” (priority 2008, dated 2017).

Key:
Active Caspase-3 = assay: Anti-active caspase-3 immunofluorescence; type: in vivo, mouse
Protocol: (§1) Tissue-mounted slides were processed for fluorescence microscopy as follows: Sections were rinsed in coplin jars for 45 minutes at room temperature (RT) in three changes of PBS. Sections were then incubated at RT for 30 minutes in a blocking permeabilization solution made of 5% normal goat serum (NGS), 5% normal rabbit serum (NRS) or 5% BlokHen II (Ayes Labs, Inc., Tigard, Oreg.), 0.05% Triton X-100 and PBS. Subsequently, the blocking solution was tipped off and the slides were rinsed in PBS for 2 minutes. […]

[1] = system: Ionized calcium-binding adaptor molecule-1 (microglia); assay: Anti-IBA-1 immunofluorescence, microglia counts; type: in vivo, mouse; conditions: SG-fed group over time (35 to 52 wk)
Protocol: as §1

Question: How did the “Apoptotic cells over time” value (Active Caspase-3; SG-fed group over time (35 to 52 wk)) turn out when `CC[C@H](/C=C/[C@@H](C)[C@H]1CC[C@H]2[C@@H]3CC=C4C[C@@H](O[C@@H]5O[C@H](CO)[C@@H](O)[C@H](O)[C@H]5O)CC[C@]4(C)[C@H]3CC[C@]12C)C(C)C` [SG, Stigmasterol β-D-Glucopyranoside] was run?
Answer: Its value is “Apoptotic cells (SG-fed group over time) (ns)”.

Question: And the “Anti-active caspase 3 immunoreactive cells” value (Active Caspase-3; SG-fed vs control, Time-point 2 (52 wk))?
Answer: Its value is “did not reach significance and (ns)”.

Question: What about the “Anti-IBA-1 immunoreactive cells over time” value [1] of the same compound?
Answer: The value was “Anti-IBA-1 immunoreactive cells (SG-fed group over time) (ns)”.
